Test results published in US12564580B2, “Mitochondria-targeted isoketal/isolevuglandin scavengers and uses thereof” (Vanderbilt University, priority 2020, dated 2026).

Tests used:
[1] = system: Intact mouse kidney mitochondria, complex I-mediated respiration; experiment: Respiration of isolated kidney mitochondria with complex I substrates glutamate+malate after acute IsoLG/IsoLG-PE treatment; assay type: biochemical
complex I = experiment: Complex I activity in mouse kidney mitochondrial lysate; conditions: mitochondrial lysates treated with a bolus of IsoLG
Protocol: (C) Mouse kidney mitochondrial lysate was acutely treated with DMSO (Control), ethanolamine, spermine, L-lysine, IsoLG (1.5 μM) or IsoLG modified-ethanolamine (IsoLG-ETN, 1.5 μM), -spermine (IsoLG-Sper, 1.5 μM), L-lysine (IsoLG-Lys, 1.5 μM), -phosphatidylethanolamine (IsoLG-PE, 1.5 μM) prior to measurements of complex I activity expressed as a % of Control (100%).
OXPHOS specific enzyme activities in submitochondrial particles (SMP) were measured using a Varian Cary 300 Bio UV/Vis spectrophotometer with temperature controlling cell holder. Briefly, SMP were prepared by sonication of isolated organelles. Complex I activity was monitored in triplicate samples as the reduction of 10 μM decylubiquinone at 272 nm by 15 μg of mitochondrial protein with 40 μM NADH.
To test this hypothesis, the present inventors studied the activity of complex I and complex II in mitochondrial lysates treated with a bolus of IsoLG.

complex II [2] = target: complex II (Mus musculus, UniProt Q8K2B3+Q9CQA3+Q9CXV1+Q9CZB0); experiment: Complex II activity in mouse kidney mitochondrial lysate; assay type: biochemical; conditions: mitochondrial lysates treated with a bolus of IsoLG
complex II (Mus musculus, UniProt Q8K2B3+Q9CQA3+Q9CXV1+Q9CZB0), sequence (Q8K2B3 43-664): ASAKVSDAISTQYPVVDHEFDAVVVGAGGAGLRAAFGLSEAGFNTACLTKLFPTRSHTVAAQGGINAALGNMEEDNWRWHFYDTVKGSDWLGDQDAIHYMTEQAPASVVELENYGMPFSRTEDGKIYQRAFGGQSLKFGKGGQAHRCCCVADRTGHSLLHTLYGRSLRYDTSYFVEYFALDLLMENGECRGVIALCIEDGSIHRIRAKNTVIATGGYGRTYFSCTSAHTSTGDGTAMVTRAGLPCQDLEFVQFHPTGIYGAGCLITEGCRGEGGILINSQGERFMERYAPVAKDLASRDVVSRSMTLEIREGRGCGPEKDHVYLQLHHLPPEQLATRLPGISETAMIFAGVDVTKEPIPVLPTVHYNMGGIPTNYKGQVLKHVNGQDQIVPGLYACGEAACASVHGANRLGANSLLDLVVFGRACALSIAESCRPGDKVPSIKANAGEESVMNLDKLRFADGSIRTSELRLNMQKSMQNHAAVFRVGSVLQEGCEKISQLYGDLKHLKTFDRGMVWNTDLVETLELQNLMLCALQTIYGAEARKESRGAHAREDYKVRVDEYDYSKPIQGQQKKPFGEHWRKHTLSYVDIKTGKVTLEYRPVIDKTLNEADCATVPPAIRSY
complex II (Mus musculus, UniProt Q8K2B3+Q9CQA3+Q9CXV1+Q9CZB0), sequence (Q9CQA3 31-282): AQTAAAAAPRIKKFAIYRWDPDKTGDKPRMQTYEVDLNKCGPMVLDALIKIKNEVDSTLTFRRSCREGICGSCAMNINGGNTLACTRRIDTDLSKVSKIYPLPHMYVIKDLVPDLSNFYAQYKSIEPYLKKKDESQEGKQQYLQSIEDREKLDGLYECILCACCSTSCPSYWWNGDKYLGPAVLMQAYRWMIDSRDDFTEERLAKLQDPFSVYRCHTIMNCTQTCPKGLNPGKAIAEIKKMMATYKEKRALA
complex II (Mus musculus, UniProt Q8K2B3+Q9CQA3+Q9CXV1+Q9CZB0), sequence (Q9CZB0 30-169): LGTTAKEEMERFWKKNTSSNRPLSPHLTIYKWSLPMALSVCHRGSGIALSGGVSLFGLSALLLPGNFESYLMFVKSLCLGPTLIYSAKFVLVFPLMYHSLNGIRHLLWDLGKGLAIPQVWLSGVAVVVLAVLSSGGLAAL
complex II (Mus musculus, UniProt Q8K2B3+Q9CQA3+Q9CXV1+Q9CZB0), sequence (Q9CXV1 57-159): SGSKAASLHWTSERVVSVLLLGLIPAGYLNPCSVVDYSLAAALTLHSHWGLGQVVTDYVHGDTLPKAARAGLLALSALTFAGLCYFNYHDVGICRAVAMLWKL

[3] = system: Intact mouse kidney mitochondria, complex II respiration; experiment: Respiration of isolated kidney mitochondria with complex II substrate succinate after acute IsoLG/IsoLG-PE treatment; assay type: biochemical; conditions: acute addition of a low dose (0.5 μM printed elsewhere in the source)
Protocol: FIGS. 1A-1C show acute treatment with IsoLG or IsoLG-PE impairs mitochondrial respiration. (A) Intact mouse kidney mitochondria were incubated (5 min) with ethanol as vehicle (Sham), IsoLG (20 μM) or IsoLG-PE (20 μM) and then diluted with respiration buffer 20-fold prior to addition of Glutamate and Malate, ADP (50 μM) and measurements of oxygen consumption in State III. *P<0.001 vs Sham, **P<0.03 vs IsoLG. (B) Oxygen consumption in the presence of complex I substrates Glutamate+Malate and ADP (State III) and Respiratory Control Ratio (State III/State IV, %) in intact kidney mitochondria treated with vehicle, IsoLG (1.5 μM) or IsoLG-PE (1.5 μM) in the respiration chamber. (C) State III respiration and Respiratory Control Ratio (State III/State IV, %) in presence of complex II substrate Succinate and ADP following addition of vehicle, IsoLG (1.5 μM) or IsoLG-PE (1.5 μM) in the respiration chamber.
Complex I is a key component of mitochondrial oxidative phosphorylation. Inactivation of complex I can lead to reduced ATP production and tissue damage. Addition of IsoLG to cells produces both protein—adducts and IsoLG-phosphatidylethanolamine adducts (IsoLG-PE) which can independently contribute to mitochondrial dysfunction. The present inventors tested whether IsoLG or IsoLG-PE could contribute to mitochondrial dysfunction. […]

[4] = system: C57Bl/6J mice, Ang II-induced hypertension; experiment: Blood pressure in angiotensin II model of hypertension (tail-cuff and telemetry); assay type: in vivo, mouse; conditions: same molar dose of untargeted 2HOBA (0.17 mmol/L) in drinking water
Description: FIGS. 10A-D show the effect of mito2HOBA on angiotensin II-induced hypertension and accumulation of mitochondrial isoLGs protein adducts. (A) Blood pressure tail-cuff measurements in male Sham or angiotensin II-infused mice supplied with mito2HOBA in drinking water (0.1 g/L) or equimolar amount of untargeted analog 2HOBA (0.17 mmol/L). (B) Telemetry studies of blood pressure in angiotensin II-infused mice supplied with mito2HOBA or plain water as a vehicle. (C) Representative LC/MS/MS chromatograms of isoLG-Lysyl-Lactam adduct; (D) isoLG-Lys-Lactam levels in kidney mitochondria isolated from Sham or angiotensin II-infused mice supplied with mito2HOBA. Results are mean±SEM. *P<0.01 vs Sham, **P<0.01 vs Ang II (n=8).
Hypertension was induced by angiotensin II ([…]) as described previously. To test the therapeutic potential of scavenging of mitochondrial isoLGs, wild-type C57B1/6J male and female mice (Jackson Labs) received saline or angiotensin II minipump placement, and provided with the plain water (vehicle) or mito2HOBA in the drinking water (0.1 g/liter). Blood pressure was monitored by the telemetry and tail-cuff measurements as previously described. The Vanderbilt Institutional Animal Care and Use Committee approved the procedures (Protocol M1700207). Simple randomization was used to select animals for sham, angiotensin II or mito2HOBA groups for equal chance of being allocated to treatment groups.
To test a functional role of mitochondrial isoLGs in hypertension, we used an Ang II model of hypertension, and monitored blood pressure by tail-cuff (FIG. 10A) and telemetry (FIG. 10B). […] Infusion of wild-type C57B1/6J mice with Ang II (0.7 mg/kg/day) increased systolic blood pressure to 162 mm Hg.

[5] = system: human aortic endothelial cells (HAEC); experiment: Mitochondrial superoxide in human aortic endothelial cells stimulated with angiotensin II plus TNFα (mitoSOX HPLC); assay type: cell-based
Protocol: FIGS. 9A and B show the effect of mito2HOBA on mitochondrial superoxide and cardiolipin oxidation in human aortic endothelial cells induced by angiotensin II plus TNFα. (A) Mitochondrial superoxide was measured by HPLC analysis of mitoSOX-superoxide specific product, mito-2-hydroxyethidium (Mito-2OH-Et+). […] (B) Cardiolipin oxidation induced by Angiotensin II+TNFα measured my LC/MS. […] Data are mean±SEM. *P<0.01 vs Control, **P<0.01 vs Angiotensin II+TNFα (n=4).
Human aortic endothelial cells (HAEC) were purchased from Lonza (Chicago, IL) and cultured in EGM-2 medium supplemented with 2% FBS but without antibiotics. On the day before the study, the FBS concentration was reduced to 1%.
We tested if mito2HOBA reduces mitochondrial oxidative stress in human aortic endothelial cells (HAEC) stimulated with angiotensin II plus TNFα for 4-hours (FIG. 9). Indeed, supplementation of HAEC with mito2HOBA (50 nM) reduced mitochondrial superoxide production stimulated by TNF[…] and Ang II as measured by accumulation of specific superoxide-MitoSOX product, 2-OH-Mito-Ethidium.

complex II [6] = target: complex II (Mus musculus, UniProt Q8K2B3); experiment: Glutamate-driven respiration of kidney mitochondria with Complex II inhibitor malonate; conditions: malonate 5 mM, Glutamate+Malate
complex II (Mus musculus, UniProt Q8K2B3), sequence (Q8K2B3 43-664): as the sequence (Q8K2B3 43-664) above
complex II (Mus musculus, UniProt Q8K2B3), sequence (Q9CQA3 31-282 partner): as the sequence (Q9CQA3 31-282) above
complex II (Mus musculus, UniProt Q8K2B3), sequence (Q9CZB0 30-169 partner): as the sequence (Q9CZB0 30-169) above
complex II (Mus musculus, UniProt Q8K2B3), sequence (Q9CXV1 57-159 partner): as the sequence (Q9CXV1 57-159) above
Protocol: To study the mitochondrial function, the combination of glutamate and malate (GM) or succinate was used as substrates. Since glutamate can be converted via transamination to α-ketoglutarate and further to succinate, the present inventors used complex II inhibitor malonate to define specific complex I respiration. The basal respiration (1) was measured in mitochondria supplemented with respiratory substrates. Then ADP was added to measure the coupled respiration (2). The proton leak (3) was determined after addition of complex V inhibitor oligomycin A. The uncoupled respiration (4) was measured after supplementation with CCCP. Finally, antimycin A plus rotenone were added to assess non-mitochondrial respiration (5) as described previously [32].
Mitochondria were isolated from 12-14-week-old male C57BL6/6J mouse kidneys. For respiration studies, electrons were entered at either complex I (glutamate+malate as substrate) or complex II (succinate as substrate). […] Since kidney mitochondria are much less studied than mitochondria from other organs, the present inventors used the specific inhibitor of Complex II malonate (5 mM) to evaluate the alternative pathways for glutamate oxidation. The Complex II mediated respiration was defined as malonate-inhibited oxygen consumption while Complex I specific respiration was defined as malonate resistant oxygen consumption. […]

15-E2-isolevuglandin [15-E2-IsoLG]
inhibition of state 3 respiration ([1]; 20 μM, five-minute treatment of isolated mitochondria, complex I substrates glutamate+malate): 74%
complex I-mediated respiration ([1]; acute addition of a low dose (0.5 μM printed elsewhere in the source), intact mitochondria): significantly attenuated
complex I inactivation (complex I): 74%
complex II activity inhibited (complex II [2]): 21%
complex II respiration [3]: much less affected

NCc1ccccc1O [2HOBA, 2-hydroxybenzylamine]
Ang II-induced hypertension [4]: did not attenuate
mitochondrial superoxide production ([5]; 50 nM, angiotensin II plus TNFα for 4-hours): did not affect
mitochondrial superoxide overproduction ([5]; cultured HAEC, concentration not stated (discussion)): partially attenuates

NCc1ccc(O)cc1 [4HOBA, 4-hydroxybenzylamine]
mitochondrial superoxide (mitochondrial oxidative stress) ([5]; 4HOBA high dose 10 μM, angiotensin II plus TNFα): did not protect

O=C(O)CC(=O)O [Malonate, malonate]
inhibition of glutamate-driven respiration (complex II [6]): 58%
